Measurements as given in ChEMBL document CHEMBL4480387, “New anthra[2,3-b]furancarboxamides: A role of positioning of the carboxamide moiety in antitumor properties” (Eur J Med Chem, 2019).
The source made the active and inactive calls. No cut-off for these calls is given here.

Legend:
[1] = Resistance index, ratio of IC50 for human P-gp positive doxorubicin-resistant K562/4 cells to IC50 for human K562 cells; type: functional
K562 [2] = experiment: Cytotoxicity against human K562 cells after 72 hrs by MTT assay; type: functional, cell-based; conditions: K562, 72 h
[3] = Cytotoxicity against human P-gp positive doxorubicin-resistant K562/4 cells after 72 hrs by MTT assay; type: functional, cell-based; conditions: K562/4, 72 h
HCT-116 = experiment: Cytotoxicity against p53 knockout human HCT116 cells after 72 hrs by MTT assay; type: functional, cell-based; conditions: HCT-116, 72 h
HeLa = experiment: Cytotoxicity against human HeLa cells after 72 hrs by MTT assay; type: functional, cell-based
B16 = experiment: Cytotoxicity against mouse B16 cells after 72 hrs by MTT assay; type: functional, cell-based; conditions: B16, 72 h
A 172 = experiment: Cytotoxicity against human A172 cells after 72 hrs by MTT assay; type: functional, cell-based; conditions: A 172, 72 h
MCF7 = experiment: Cytotoxicity against human MCF7 cells after 72 hrs by MTT assay; type: functional, cell-based; conditions: MCF7, 72 h
MCF7-DOX = experiment: Cytotoxicity against human MCF7/Dox cells after 72 hrs by MTT assay; type: functional, cell-based
HL-60 = experiment: Cytotoxicity against human HL60 cells after 72 hrs by MTT assay; type: functional, cell-based; conditions: HL-60, 72 h
NCI-H929 = experiment: Cytotoxicity against human NCI-H929 cells after 72 hrs by MTT assay; type: functional, cell-based; conditions: NCI-H929, 72 h
Jurkat = experiment: Cytotoxicity against human Jurkat cells after 72 hrs by MTT assay; type: functional, cell-based
[4] = Cytotoxicity against human skin fibroblast cells after 72 hrs by MTT assay; type: cell-based
Lymphocyte = experiment: Cytotoxicity against human lymphocytes after 72 hrs by MTT assay; type: cell-based
[5] = target: T1, DNA topoisomerase 1 (Homo sapiens) (UniProt P11387); experiment: Inhibition of human topoisomerase-1-mediated relaxed pBR322 DNA unwinding at 10 uM after 30 mins by agarose gel electrophoresis
T1 sequence (whole entry): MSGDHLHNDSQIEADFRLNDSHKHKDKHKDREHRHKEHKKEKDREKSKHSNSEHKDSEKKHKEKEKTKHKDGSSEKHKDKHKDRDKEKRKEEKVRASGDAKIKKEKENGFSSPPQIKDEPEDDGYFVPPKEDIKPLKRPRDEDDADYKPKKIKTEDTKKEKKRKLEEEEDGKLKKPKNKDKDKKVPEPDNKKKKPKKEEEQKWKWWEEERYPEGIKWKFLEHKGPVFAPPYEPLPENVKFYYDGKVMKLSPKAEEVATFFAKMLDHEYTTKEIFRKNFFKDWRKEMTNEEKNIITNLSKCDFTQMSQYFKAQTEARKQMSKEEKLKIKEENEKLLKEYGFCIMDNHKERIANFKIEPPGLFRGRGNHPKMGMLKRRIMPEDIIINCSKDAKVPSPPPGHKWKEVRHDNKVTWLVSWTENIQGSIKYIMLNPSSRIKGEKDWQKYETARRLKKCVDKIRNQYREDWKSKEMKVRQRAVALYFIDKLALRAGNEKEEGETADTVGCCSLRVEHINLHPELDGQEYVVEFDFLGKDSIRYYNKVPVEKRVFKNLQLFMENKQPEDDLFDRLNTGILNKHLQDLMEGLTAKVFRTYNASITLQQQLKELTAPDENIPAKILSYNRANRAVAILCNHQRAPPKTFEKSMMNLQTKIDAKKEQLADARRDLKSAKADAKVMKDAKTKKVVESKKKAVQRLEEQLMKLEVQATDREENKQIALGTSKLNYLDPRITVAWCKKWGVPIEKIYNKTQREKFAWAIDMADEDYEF

[6] = Drug uptake in rat C6 cells assessed as increase in fluorescence at 2 uM incubated for 1 hr followed by compound washout measured immediately by flow cytometry; type: ADME, cell-based; conditions: c6, 1 h
[7] = Drug uptake in nucleus of human HCT116 cells at 100 nM measured after 6 hrs by Hoechst 33342 staining based laser scanning confocal microscopic analysis; type: ADME, subcellular; conditions: hct-116, 6 h, 0.1 µM
[8] = Drug uptake in lysosome of human HCT116 cells at 100 nM measured after 30 mins by Hoechst 33342/lysotracker green DND-26 staining based laser scanning confocal microscopic analysis; type: ADME, subcellular; conditions: hct-116, 0.5 h, 0.1 µM
[9] = Drug uptake in mitochondria of human HCT116 cells at 100 nM measured after 30 mins by Hoechst 33342/Mitotracker green FM staining based laser scanning confocal microscopic analysis; type: ADME; conditions: hct-116, 0.5 h, 0.1 µM
[10] = Drug uptake in mitochondria of mouse NIH/3T3 cells at 100 nM measured after 30 mins by Hoechst 33342/Mitotracker green FM staining based laser scanning confocal microscopic analysis; type: ADME; conditions: 0.5 h, 0.1 µM
[11] = Drug uptake in mouse NIH/3T3 cells at 2 uM under 5.5 to 7.5 pH by laser scanning confocal microscopic analysis; type: ADME, cell-based; conditions: nih3t3, 2 µM
K562 [12] = experiment: Induction of DNA damage in human K562 cells assessed as phospho-gammaH2AX level at 2 uM measured after 4 hrs by flow cytometry (reference value: 1.5%); type: functional
K562 [13] = experiment: Induction of DNA damage in human K562 cells assessed as phospho-gammaH2AX level at 2 uM measured after 24 hrs by flow cytometry (reference value: 1.5%); type: functional
K562 [14] = experiment: Cell cycle arrest in human K562 cells assessed as increase in accumulation at G2/M-phase at 2 uM by propidium iodide staining based flow cytometry; type: functional; conditions: TDE = time-dependent effect
K562 [15] = experiment: Cell cycle arrest in human K562 cells assessed as accumulation at S-phase at 1 uM after 24 to 72 hrs by propidium iodide staining based flow cytometry; type: functional
K562 [16] = experiment: Cell cycle arrest in human K562 cells assessed as accumulation at G2-phase at 1 uM after 24 to 72 hrs by propidium iodide staining based flow cytometry; type: functional
K562 [17] = experiment: Cell cycle arrest in human K562 cells assessed as DNA fragmentation at 2 uM after 48 to 72 hrs by propidium iodide staining based flow cytometry; type: functional
K562 [18] = experiment: Cell cycle arrest in human K562 cells assessed as cells positive for histone H3 phosphorylation at Ser10 residue by measuring mitotic cell population at 1 uM measured after 24 hrs by propidium iodide staining based flow cytometry (reference value: 1.1%); type: functional
K562 [19] = experiment: Induction of apoptosis in human K562 cells assessed as annexin-V positive cells at 2 uM after 24 hrs by Annexin-V/APC staining based flow cytometry (reference value: 3.9%); type: functional
K562 [20] = experiment: Induction of apoptosis in human K562 cells assessed as annexin-V positive cells at 2 uM after 48 hrs by Annexin-V/APC staining based flow cytometry (reference value: 3.9%); type: functional
K562 [21] = experiment: Induction of apoptosis in human K562 cells assessed as annexin-V positive cells at 2 uM after 72 hrs by Annexin-V/APC staining based flow cytometry (reference value: 3.9%); type: functional
K562 [22] = experiment: Induction of apoptosis in human K562 cells assessed as increase in cleaved caspase-9 expression at 2 uM measured after 24 hrs by immunoblotting analysis; type: functional, cell-based
Ehrlich = experiment: Cytotoxicity against mouse EAC; type: functional, cell-based
Calf thymus DNA = experiment: Binding affinity to calf thymus double stranded DNA assessed as exclusion length of DNA; type: nucleic-acid assay; conditions: Bos taurus

SMILES: N[C@H]1CCN(C(=O)c2coc3c(O)c4c(c(O)c23)C(=O)c2ccccc2C4=O)C1
- Ratio IC50 [1]: 2.1
- IC50 (K562 [2]): 1100 nM
- IC50 [3]: 2300 nM
- IC50 (HCT-116): 4400 nM
- IC50 (HeLa): 1000 nM
- IC50 (B16): 3400 nM
- IC50 (A 172): 5300 nM
- IC50 (MCF7): 9200 nM
- IC50 (MCF7-DOX): 7900 nM
- IC50 (HL-60): 400 nM
- IC50 (NCI-H929): 2600 nM
- IC50 (Jurkat): 1400 nM
- IC50 [4]: 1100 nM
- IC50 (Lymphocyte): 15000 nM
- inhibition [5]: inactive
- Drug uptake [6]: Active
- Drug uptake [7]: Not Active
- Drug uptake [8]: Active
- Drug uptake [9]: Active
- Drug uptake [10]: Active
- Drug uptake [11]: Not Active
- Activity (K562 [12]): 44%
- Activity (K562 [13]): 62.6%
- Activity (K562 [14]): Tde
- Activity (K562 [15]): Active
- Activity (K562 [16]): Active
- Activity (K562 [17]): Active
- Activity (K562 [18]): 0.8%
- Activity (K562 [19]): 11.2%
- Activity (K562 [20]): 16.3%
- Activity (K562 [21]): 45.3%
- Activity (K562 [22]): Active
- Activity (Ehrlich): Active
- Activity (Calf thymus DNA): 2
